Earlier results as cited in patent publication US7989007B2, “Weight loss composition” (Vincent James Enterprises, LLC, priority 2007, dated 2011).

Details: subjects treated for hypertension; similar degree of hypertension control

weight gain compared to patients treated with captopril: twice the weight gain
SMILES: CC(C)NCC(O)COc1ccc(CC(N)=O)cc1 (stereo not shown) [atenolol]
